# Experimental data as given in patent US20190315823A1, “SMALL CATIONIC ANTI-BIOFILM AND IDR PEPTIDES” (priority 2013, published 2019).
# Ends that are not written are not given here.
# Columns and labels:
# [1] = system: methicillin resistant Staphylococcus aureus (MRSA) biofilm; conditions: approximate peptide concentration […] (around 3 μg/ml); compared to untreated samples
# Summary of the method: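 Static biofilm assay: 1/100 dilutions of overnight cultures grown in BM2 medium (pH 7, glucose, Casamino Acids) or Luria Broth with peptide added at time zero. After 22–46 h, adherent biofilm was stained with crystal violet and read at 595 nm. Some peptides were also tested on K. pneumoniae under flow in a Bioflux system.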
# [2] = system: human peripheral blood mononuclear cells (MCP-1); test: SPOT-synthesized derivative screen: production of chemokine MCP-1; format: cell-based; conditions: Table 12, No LPS, human PBMC, peptide at ~18-24 μM; for MCP1: background subtracted 139 (HH2 derivatives), 170 (1018 derivatives), 242 (1002 and hybrid peptides) pg/ml
# Summary of the method: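 PBMC from heparinized healthy-donor venous blood, Ficoll-separated, cultured at 0.75 to 1×10^6 cells/ml, 37 °C, 5% CO2, under the treatment regimens. MCP-1 in cell-free supernatants measured by capture ELISA.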
# [3] = system: LPS-stimulated human peripheral blood mononuclear cells (IL1-β); format: cell-based; conditions: Table 12, cells stimulated with 10 ng/ml LPS; for IL1β Production: LPS alone 1313 (HH2 derivatives), 1927 (1018 derivatives), 2455 (1002 and hybrid peptides) pg/ml
substance,measurement,setting,value
1002-Q8: single substituted 1002 peptide (VQRWLIVQRIRK-NH2) [Peptide 1002-Q8],% Biofilm inhibition,[1],20%
same,Fold increase in MCP1 cf. untreated cells,[2],0.9
same,MCP1,[2],-36.2 pg/mL
same,Fold change in IL1β relative to no peptide LPS stimulated cells,[3],0.66
same,IL1β Production,[3],1608 pg/mL
1018-K4: single substituted 1018 peptide (VRLKVAVRIWRR-NH2) [Peptide 1018-K4],% Biofilm inhibition,[1],41%
same,Fold increase in MCP1 cf. untreated cells,[2],1.2
same,MCP1,[2],40 pg/mL
same,Fold change in IL1β relative to no peptide LPS stimulated cells,[3],0.30
same,IL1β Production,[3],393 pg/mL
1002-G10: single substituted 1002 peptide (VQRWLIVWRGRK-NH2) [Peptide 1002-G10],% Biofilm inhibition,[1],35%
same,Fold increase in MCP1 cf. untreated cells,[2],1.4
same,MCP1,[2],91.3 pg/mL
same,Fold change in IL1β relative to no peptide LPS stimulated cells,[3],0.09
same,IL1β Production,[3],222 pg/mL
1002-L7: single substituted 1002 peptide (VQRWLILWRIRK-NH2) [Peptide 1002-L7],% Biofilm inhibition,[1],57%
same,Fold increase in MCP1 cf. untreated cells,[2],1.8
same,MCP1,[2],199.1 pg/mL
same,Fold change in IL1β relative to no peptide LPS stimulated cells,[3],0.05
same,IL1β Production,[3],127 pg/mL
HH2-L12: single substituted HH2 peptide (VQLRIRVAVIRL-NH2),% Biofilm inhibition,[1],51%
same,Fold increase in MCP1 cf. untreated cells,[2],24
same,MCP1,[2],3916 pg/mL
same,Fold change in IL1β relative to no peptide LPS stimulated cells,[3],0.23
same,IL1β Production,[3],301 pg/mL
1002-I9: single substituted 1002 peptide (VQRWLIVWIIRK-NH2) [Peptide 1002-I9],% Biofilm inhibition,[1],53%
same,Fold increase in MCP1 cf. untreated cells,[2],3.5
same,MCP1,[2],605.9 pg/mL
same,Fold change in IL1β relative to no peptide LPS stimulated cells,[3],0.06
same,IL1β Production,[3],158 pg/mL
HH2-A4: single substituted HH2 peptide (VQLAIRVAVIRA-NH2),% Biofilm inhibition,[1],42%
same,Fold increase in MCP1 cf. untreated cells,[2],5.0
same,MCP1,[2],672 pg/mL
same,Fold change in IL1β relative to no peptide LPS stimulated cells,[3],1.52
same,IL1β Production,[3],2000 pg/mL
HH2-K5: single substituted HH2 peptide (VQLRKRVAVIRA-NH2),% Biofilm inhibition,[1],27%
same,Fold increase in MCP1 cf. untreated cells,[2],12
same,MCP1,[2],1923 pg/mL
same,Fold change in IL1β relative to no peptide LPS stimulated cells,[3],1.19
same,IL1β Production,[3],1559 pg/mL
1018-A2: single substituted 1018 peptide (VALIVAVRIWRR-NH2) [Peptide 1018-A2],% Biofilm inhibition,[1],64%
same,Fold increase in MCP1 cf. untreated cells,[2],0.6
same,MCP1,[2],-65 pg/mL
same,Fold change in IL1β relative to no peptide LPS stimulated cells,[3],0.10
same,IL1β Production,[3],127 pg/mL
1002-I7: single substituted 1002 peptide (VQRWLIIWRIRK-NH2) [Peptide 1002-I7],% Biofilm inhibition,[1],73%
same,Fold increase in MCP1 cf. untreated cells,[2],3.3
same,MCP1,[2],557.5 pg/mL
same,Fold change in IL1β relative to no peptide LPS stimulated cells,[3],0.05
same,IL1β Production,[3],127 pg/mL
1018-L12: single substituted 1018 peptide (VRLIVAVRIWRL-NH2) [Peptide 1018-L12],% Biofilm inhibition,[1],44%
same,Fold increase in MCP1 cf. untreated cells,[2],1.2
same,MCP1,[2],29 pg/mL
same,Fold change in IL1β relative to no peptide LPS stimulated cells,[3],0.17
same,IL1β Production,[3],220 pg/mL
1018-A8: single substituted 1018 peptide (VRLIVAVAIWRR-NH2) [Peptide 1018-A8],% Biofilm inhibition,[1],60%
same,Fold increase in MCP1 cf. untreated cells,[2],3.7
same,MCP1,[2],460 pg/mL
same,Fold change in IL1β relative to no peptide LPS stimulated cells,[3],0.10
same,IL1β Production,[3],127 pg/mL
HH2-R10: single substituted HH2 peptide (VQLRIRVAVRRA-NH2),% Biofilm inhibition,[1],73%
same,Fold increase in MCP1 cf. untreated cells,[2],5.1
same,MCP1,[2],701 pg/mL
same,Fold change in IL1β relative to no peptide LPS stimulated cells,[3],1.53
same,IL1β Production,[3],2003 pg/mL
HH2-R7: single substituted HH2 peptide (VQLRIRRAVIRA-NH2),% Biofilm inhibition,[1],3%
same,Fold increase in MCP1 cf. untreated cells,[2],1.6
same,MCP1,[2],98 pg/mL
same,Fold change in IL1β relative to no peptide LPS stimulated cells,[3],1.49
same,IL1β Production,[3],1959 pg/mL
HH2-G7: single substituted HH2 peptide (VQLRIRGAVIRA-NH2),% Biofilm inhibition,[1],33%
same,Fold increase in MCP1 cf. untreated cells,[2],1.5
same,MCP1,[2],78 pg/mL
same,Fold change in IL1β relative to no peptide LPS stimulated cells,[3],1.02
same,IL1β Production,[3],1344 pg/mL
1018-G5: single substituted 1018 peptide (VRLIGAVRIWRR-NH2) [Peptide 1018-G5],% Biofilm inhibition,[1],38%
same,Fold increase in MCP1 cf. untreated cells,[2],13
same,MCP1,[2],2090 pg/mL
same,Fold change in IL1β relative to no peptide LPS stimulated cells,[3],1.23
same,IL1β Production,[3],1620 pg/mL
1002-V3: single substituted 1002 peptide (VQVWLIVWRIRK-NH2) [Peptide 1002-V3],% Biofilm inhibition,[1],49%
same,Fold increase in MCP1 cf. untreated cells,[2],2.5
same,MCP1,[2],359.1 pg/mL
same,Fold change in IL1β relative to no peptide LPS stimulated cells,[3],0.05
same,IL1β Production,[3],127 pg/mL
1018-W6: single substituted 1018 peptide (VRLIVWVRIWRR-NH2) [Peptide 1018-W6],% Biofilm inhibition,[1],75%
same,Fold increase in MCP1 cf. untreated cells,[2],0.7
same,MCP1,[2],-54 pg/mL
same,Fold change in IL1β relative to no peptide LPS stimulated cells,[3],0.24
same,IL1β Production,[3],310 pg/mL
HH2-K8: single substituted HH2 peptide (VQLRIRVKVIRA-NH2),% Biofilm inhibition,[1],73%
same,Fold increase in MCP1 cf. untreated cells,[2],9.8
same,MCP1,[2],1501 pg/mL
same,Fold change in IL1β relative to no peptide LPS stimulated cells,[3],0.65
same,IL1β Production,[3],851 pg/mL
1018-W11: single substituted 1018 peptide (VRLIVAVRIWWR-NH2) [Peptide 1018-W11],% Biofilm inhibition,[1],53%
same,Fold increase in MCP1 cf. untreated cells,[2],0.8
same,MCP1,[2],-28 pg/mL
same,Fold change in IL1β relative to no peptide LPS stimulated cells,[3],0.62
same,IL1β Production,[3],814 pg/mL
1002-G8: single substituted 1002 peptide (VQRWLIVGRIRK-NH2) [Peptide 1002-G8],% Biofilm inhibition,[1],42%
same,Fold increase in MCP1 cf. untreated cells,[2],0.9
same,MCP1,[2],-36.2 pg/mL
same,Fold change in IL1β relative to no peptide LPS stimulated cells,[3],0.28
same,IL1β Production,[3],692 pg/mL
HH2-W6: single substituted HH2 peptide (VQLRIWVAVIRA-NH2),% Biofilm inhibition,[1],56%
same,Fold increase in MCP1 cf. untreated cells,[2],4.1
same,MCP1,[2],534 pg/mL
same,Fold change in IL1β relative to no peptide LPS stimulated cells,[3],0.55
same,IL1β Production,[3],718 pg/mL
HH2-G9: single substituted HH2 peptide (VQLRIRVAGIRA-NH2),% Biofilm inhibition,[1],59%
same,Fold increase in MCP1 cf. untreated cells,[2],3.0
same,MCP1,[2],342 pg/mL
same,Fold change in IL1β relative to no peptide LPS stimulated cells,[3],1.04
same,IL1β Production,[3],1363 pg/mL
HH2-V5: single substituted HH2 peptide (VQLRVRVAVIRA-NH2),% Biofilm inhibition,[1],50%
same,Fold increase in MCP1 cf. untreated cells,[2],9.3
same,MCP1,[2],1409 pg/mL
same,Fold change in IL1β relative to no peptide LPS stimulated cells,[3],1.29
same,IL1β Production,[3],1696 pg/mL
1018-I11: single substituted 1018 peptide (VRLIVAVRIWIR-NH2) [Peptide 1018-I11],% Biofilm inhibition,[1],16%
same,Fold increase in MCP1 cf. untreated cells,[2],1.5
same,MCP1,[2],83 pg/mL
same,Fold change in IL1β relative to no peptide LPS stimulated cells,[3],1.35
same,IL1β Production,[3],1775 pg/mL
1002-A10: single substituted 1002 peptide (VQRWLIVWRARK-NH2) [Peptide 1002-A10],% Biofilm inhibition,[1],45%
same,Fold increase in MCP1 cf. untreated cells,[2],2.0
same,MCP1,[2],245.4 pg/mL
same,Fold change in IL1β relative to no peptide LPS stimulated cells,[3],0.05
same,IL1β Production,[3],127 pg/mL
1002-L6: single substituted 1002 peptide (VQRWLLVWRIRK-NH2) [Peptide 1002-L6],% Biofilm inhibition,[1],52%
same,Fold increase in MCP1 cf. untreated cells,[2],1.3
same,MCP1,[2],68.0 pg/mL
same,Fold change in IL1β relative to no peptide LPS stimulated cells,[3],0.05
same,IL1β Production,[3],127 pg/mL
1002-R12: single substituted 1002 peptide (VQRWLIVWRIRR-NH2) [Peptide 1002-R12],% Biofilm inhibition,[1],62%
same,Fold increase in MCP1 cf. untreated cells,[2],2.1
same,MCP1,[2],270.8 pg/mL
same,Fold change in IL1β relative to no peptide LPS stimulated cells,[3],0.05
same,IL1β Production,[3],127 pg/mL
1018-K8: single substituted 1018 peptide (VRLIVAVKIWRR-NH2) [Peptide 1018-K8],% Biofilm inhibition,[1],65%
same,Fold increase in MCP1 cf. untreated cells,[2],8.3
same,MCP1,[2],1237 pg/mL
same,Fold change in IL1β relative to no peptide LPS stimulated cells,[3],0.18
same,IL1β Production,[3],242 pg/mL
1002-R7: single substituted 1002 peptide (VQRWLIRWRIRK-NH2) [Peptide 1002-R7],% Biofilm inhibition,[1],58%
same,Fold increase in MCP1 cf. untreated cells,[2],2.1
same,MCP1,[2],270.8 pg/mL
same,Fold change in IL1β relative to no peptide LPS stimulated cells,[3],0.16
same,IL1β Production,[3],382 pg/mL
